Literature values in patent US20060099233A1, “Granular formulation of neem seed extract and its process thereof” (E.I.D. Parry (India) Limited, priority 2004, published 2006).
Read-outs that look alike come from different tables or passages of the source.

Settings: 25 days at 29±1° C.

C/C=C(\C)C(=O)O[C@H]1C[C@@H](OC(C)=O)[C@@]2(C(=O)OC)CO[C@H]3[C@@H](O)[C@@](C)([C@]45O[C@@]4(C)[C@@H]4C[C@H]5O[C@@H]5OC=C[C@@]54O)[C@H]4[C@]1(CO[C@]4(O)C(=O)OC)[C@@H]32 [azadirachtin A]
degradation of azadirachtin A (in ethanol and water): about 85%
degradation of azadirachtin A (in methanol and acetone): 50%
degradation of azadirachtin A (in methylene chloride, carbon tetrachloride and chloroform): 75-80%
